Source: patent publication US12091405B2, “Substituted pyrazole compounds as indoleamine 2,3-dioxygenase inhibitors” (Merck Sharp & Dohme LLC, priority 2018, dated 2024)

target: IDO1 (Homo sapiens, UniProt P14902); assay: IDO1 Cellular Assay in HeLa Cells Stimulated with IFNγ; assay type: cell-based; settings: IFNγ 100 ng/mL, 300 uM L-tryptophan, about 48 hours, fluorescence readout, read-out: IDO1 HELA Cell Assay, IC50
Protocol: Biological Assays IDO1 Cellular Assay in HeLa Cells Stimulated with IFNγ
HeLa cells were cultured in complete HeLa culture medium (90% EMEM, 10% heat-inactivated fetal bovine serum) and expanded to about 1×10^9 cells. The cells were then collected and frozen down at 1×10^7 cells/vial in 1 mL frozen medium (90% complete HeLa culture medium, 10% DMSO).
Compounds to be tested were serially diluted in ten 3-fold steps in DMSO starting from 10 mM DMSO stocks in Echo low volume plate(s). Compound dilutions or DMSO alone were then dispensed from the dilution plate(s) into Greiner black 384-well assay plate(s) (catalog #781086, 50 nL/well) using an Echo 550 acoustic liquid handler (Labcyte).
Frozen HeLa cells were thawed and transferred into HeLa assay medium (99% complete HeLa culture medium, 1% Pen/Strep) with 20 mL medium/vial of cells. The cells were spun down at 250 g in a table top centrifuge for 5 min and suspended in same volume of HeLa assay medium. The cells were then counted and adjusted to a density of 2×10^5 cells/mL in HeLa assay medium. Sterile L-tryptophan were added to the cells with final concentration of 300 uM L-tryptophan. A small aliquot (2 mL/plate) of HeLa cells were set aside and were not treated with IFNγ, to serve as the Max-E control.
HeLa cells with and without IFNγ were dispensed to the respective wells of 384-well assay plates containing the compounds. The plates were incubated for about 48 hours at a 37° C., 5% CO2 incubator. Afterwards, 12 μL of 0.5 M methyl isonipecotate in dimethyl sulfoxide were added into each well and the plates were sealed and incubated at 37° C. without CO2 overnight. The plates were centrifuged for 1 min at 200×g. The resulting fluorescence was measured in a Spectramax plate reader (Molecular Devices) with a 400 nm excitation filter and a 510 nm emission filter.
The fluorescence intensity of each well was corrected for the background observed in wells with non-IFNγ-treated cells and was expressed as a fraction of the intensity observed in wells of IFNγ-treated cells and DMSO only. Potencies were calculated by linear least squares fit to the four parameter logistic IC50 equation.
Compounds disclosed herein generally have IC50 of about 0.1 nM to about 20,000 nM, or more specifically, about 1 nM to about 10,000 nM, or more specifically, about 5 nM to about 5,000 nM, or more specifically, about 10 nM to about 1,000 nM, or still more specifically, about 10 nM to about 500 nM.

Chain of IDO1 (P14902 whole entry): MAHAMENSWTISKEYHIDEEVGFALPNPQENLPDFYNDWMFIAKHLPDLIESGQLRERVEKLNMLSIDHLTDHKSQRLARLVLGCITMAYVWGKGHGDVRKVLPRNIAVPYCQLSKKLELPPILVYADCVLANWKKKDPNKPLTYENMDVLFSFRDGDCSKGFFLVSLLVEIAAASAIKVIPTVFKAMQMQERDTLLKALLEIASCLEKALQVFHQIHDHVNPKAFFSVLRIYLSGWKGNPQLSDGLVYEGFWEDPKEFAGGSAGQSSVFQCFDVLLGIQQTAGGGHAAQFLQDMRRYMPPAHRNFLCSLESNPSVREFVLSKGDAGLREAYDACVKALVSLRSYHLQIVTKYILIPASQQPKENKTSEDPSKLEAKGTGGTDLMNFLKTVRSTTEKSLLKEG

Row | Compound | IC50 [nM]
1 | Cc1cccc(C2CCN(C(=O)Cn3nc(C(=O)N4CCC(O)CC4)c4c3CCC4)CC2(F)F)c1C (single isomer, unassigned) [Example 15, 1-(4-(2,3-dimethylphenyl)-3,3-difluoropiperidin-1-yl)-2-(3-(4-hydroxypiperidine-1-carbonyl)-5,6-dihydrocyclopenta[c]pyrazol-1(4H)-yl)ethanone] | 11.6
2 | Cc1c(C2CCN(C(=O)Cn3nc(C(=O)N4CCC(O)(CF)CC4)c4c3C[C@H]3C[C@@H]43)CC2)cccc1C(F)(F)F [Example 1, 2-((3bR,4aR)-3-(4-(fluoromethyl)-4-hydroxypiperidine-1-carbonyl)-3b,4,4a,5-tetrahydro-1H-cyclopropa[3,4]cyclopenta[1,2-c]pyrazol-1-yl)-1-(4-(2-methyl-3-(trifluoromethyl)phenyl)piperidin-1-yl)ethanone] | 0.8
3 | Cc1c(C2CCN(C(=O)Cn3nc(C(=O)N4CCC(O)CC4)c4c3C[C@H]3C[C@@H]43)CC2)cccc1C(F)(F)F [Example 2, 2-((3bR,4aR)-3-(4-hydroxypiperidine-1-carbonyl)-3b,4,4a,5-tetrahydro-1H-cyclopropa[3,4]cyclopenta[1,2-c]pyrazol-1-yl)-1-(4-(2-methyl-3-(trifluoromethyl)phenyl)piperidin-1-yl) ethanone] | 1.6
4 | Cc1c(C2CCN(C(=O)Cn3nc(C(=O)N4CCN(C(=O)CO)CC4)c4c3C[C@H]3C[C@@H]43)CC2)cccc1C(F)(F)F [Example 3, 2-hydroxy-1-(4-((3bR,4aR)-1-(2-(4-(2-methyl-3-(trifluoromethyl)phenyl)piperidin-1-yl)-2-oxoethyl)-3b,4,4a,5-tetrahydro-1H-cyclopropa[3,4]cyclopenta[1,2-c]pyrazole-3-carbonyl)piperazin-1-yl)ethanone] | 1.3
5 | Cc1c(C2CCN(C(=O)Cn3nc(C(=O)N4CCO[C@H](CO)C4)c4c3C[C@H]3C[C@@H]43)CC2)cccc1C(F)(F)F [Example 4, 2-((3bR,4aR)-3-((S)-2-(hydroxymethyl)morpholine-4-carbonyl)-3b,4,4a,5-tetrahydro-1H-cyclopropa[3,4]cyclopenta[1,2-c]pyrazol-1-yl)-1-(4-(2-methyl-3-(trifluoromethyl)phenyl)piperidin-1-yl)ethanone] | 3
6 | Cc1c(C2CCN(C(=O)Cn3nc(C(=O)N4CCO[C@@H](CO)C4)c4c3C[C@H]3C[C@@H]43)CC2)cccc1C(F)(F)F [Example 5, 2-((3bR,4aR)-3-((R)-2-(hydroxymethyl)morpholine-4-carbonyl)-3b,4,4a,5-tetrahydro-1H-cyclopropa[3,4]cyclopenta[1,2-c]pyrazol-1-yl)-1-(4-(2-methyl-3-(trifluoromethyl)phenyl)piperidin-1-yl)ethanone] | 1.7
7 | Cc1c(C2CCN(C(=O)Cn3nc(C(=O)N4CCN(CC(N)=O)CC4)c4c3C[C@H]3C[C@@H]43)CC2)cccc1C(F)(F)F [Example 6, 2-(4-((3bR,4aR)-1-(2-(4-(2-methyl-3-(trifluoromethyl)phenyl)piperidin-1-yl)-2-oxoethyl)-3b,4,4a,5-tetrahydro-1H-cyclopropa[3,4]cyclopenta[1,2-c]pyrazole-3-carbonyl)piperazin-1-yl)acetamide] | 2.5
8 | O=C(Cn1nc(C(=O)N2CCC(O)CC2)c2c1CCC2)N1CCC(c2cccc3c2CC3)CC1 [Example 16, 1-(4-(bicyclo[4.2.0]octa-1(6),2,4-trien-2-yl)piperidin-1-yl)-2-(3-(4-hydroxypiperidine-1-carbonyl)-5,6-dihydrocyclopenta[c]pyrazol-1(4H)-yl)ethanone] | 25
9 | Cc1cccc(C2CCN(C(=O)Cn3nc(C(=O)N4CC[C@H](O)[C@@H](F)C4)c4c3C[C@H]3C[C@@H]43)CC2)c1C [Example 23, 1-[4-(2,3-dimethylphenyl)piperidin-1-yl]-2-{(3bR,4aR)-3-[(3S,4S)-3-fluoro-4-hydroxypiperidine-1-carbonyl]-3b,4,4a,5-tetrahydro-1H-cyclopropa[3,4]cyclopenta[1,2-c]pyrazol-1-yl}ethan-1-one] | 1.1
10 | C[C@@H]1CN(C(=O)c2nn(CC(=O)N3CCC(C4CCCCC4)CC3)c3c2CCC3)C[C@H](C)O1 [Example 30, 1-(4-cyclohexylpiperidin-1-yl)-2-{3-[(2R,6S)-2,6-dimethylmorpholine-4-carbonyl]-5,6-dihydrocyclopenta[c]pyrazol-1(4H)-yl}ethan-1-one] | 299
11 | Cc1cccc(C2CCN(C(=O)Cn3nc(C(=O)N4CCC(O)CC4)c4c3CCCC4)CC2)c1C [Example 34, 1-(4-(2,3-dimethylphenyl)piperidin-1-yl)-2-(3-(4-hydroxypiperidine-1-carbonyl)-4,5,6,7-tetrahydro-1H-indazol-1-yl)ethanone] | 1.2

Now from value to molecule:

Row | IC50 [nM] | Compound
12 | 1 | Cc1cccc(C2(F)CCN(C(=O)Cn3nc(C(=O)N4CCC(OCCO)CC4)c4c3C[C@H]3C[C@@H]43)CC2)c1C [Example 8, 1-(4-(2,3-dimethylphenyl)-4-fluoropiperidin-1-yl)-2-((3bR,4aR)-3-(4-(2-hydroxyethoxy)piperidine-1-carbonyl)-3b,4,4a,5-tetrahydro-1H-cyclopropa[3,4]cyclopenta[1,2-c]pyrazol-1-yl)ethanone]
13 | 3.4 | Cc1cccc(C2(F)CCN(C(=O)Cn3nc(C(=O)N4CCC(O)CC4)c4c3C[C@H]3C[C@@H]43)CC2)c1C [Example 10, 1-(4-(2,3-dimethylphenyl)-4-fluoropiperidin-1-yl)-2-((3bR,4aR)-3-(4-hydroxypiperidine-1-carbonyl)-3b,4,4a,5-tetrahydro-1H-cyclopropa[3,4]cyclopenta[1,2-c]pyrazol-1-yl)ethanone]
14 | 5.4 | Cc1cccc(C2(F)CCN(C(=O)Cn3nc(C(=O)N4CCN(C(=O)CO)CC4)c4c3C[C@H]3C[C@@H]43)CC2)c1C [Example 11, 1-(4-(2,3-dimethylphenyl)-4-fluoropiperidin-1-yl)-2-((3bR,4aR)-3-(4-(2-hydroxyacetyl)piperazine-1-carbonyl)-3b,4,4a,5-tetrahydro-1H-cyclopropa[3,4]cyclopenta[1,2-c]pyrazol-1-yl)ethanone]
15 | 2.1 | CC(=O)NC1CCN(C(=O)c2nn(CC(=O)N3CCC(F)(c4cccc(C)c4C)CC3)c3c2[C@@H]2C[C@@H]2C3)CC1 [Example 12, N-(1-((3bR,4aR)-1-(2-(4-(2,3-dimethylphenyl)-4-fluoropiperidin-1-yl)-2-oxoethyl)-3b,4,4a,5-tetrahydro-1H-cyclopropa[3,4]cyclopenta[1,2-c]pyrazole-3-carbonyl)piperidin-4-yl)acetamide]
16 | 90.4 | Cc1cccc(C2(F)CCN(C(=O)Cn3nc(C(=O)N4CCC(N)CC4)c4c3C[C@H]3C[C@@H]43)CC2)c1C [Example 13, 2-((3bR,4aR)-3-(4-aminopiperidine-1-carbonyl)-3b,4,4a,5-tetrahydro-1H-cyclopropa[3,4]cyclopenta[1,2-c]pyrazol-1-yl)-1-(4-(2,3-dimethylphenyl)-4-fluoropiperidin-1-yl)ethanone]
17 | 1.2 | Cc1cccc(C2CCN(C(=O)Cn3nc(C(=O)N4CC[C@@H](O)[C@H](F)C4)c4c3C[C@H]3C[C@@H]43)CC2)c1C [Example 24, 1-[4-(2,3-dimethylphenyl)piperidin-1-yl]-2-{(3bR,4aR)-3-[(3R,4R)-3-fluoro-4-hydroxypiperidine-1-carbonyl]-3b,4,4a,5-tetrahydro-1H-cyclopropa[3,4]cyclopenta[1,2-c]pyrazol-1-yl}ethan-1-one]
18 | 36.8 | Cc1cccc(C2CCN(C(=O)Cn3nc(C(=O)N4CC[C@@H](O)[C@@H](F)C4)c4c3C[C@@H]3C[C@H]43)CC2)c1C [Example 27, 1-[4-(2,3-dimethylphenyl)piperidin-1-yl]-2-{(3bS,4aS)-3-[(3S,4R)-3-fluoro-4-hydroxypiperidine-1-carbonyl]-3b,4,4a,5-tetrahydro-1H-cyclopropa[3,4]cyclopenta[1,2-c]pyrazol-1-yl}ethan-1-one]
19 | 41.2 | Cc1cccc(C2CCN(C(=O)Cn3nc(C(=O)N4CCN(C(=O)CO)CC4)c4c3C[C@@H]3C[C@H]43)CC2)c1C [Example 28, 1-[4-(2,3-dimethylphenyl)piperidin-1-yl]-2-{(3bS,4aS)-3-[4-(hydroxyacetyl)piperazine-1-carbonyl]-3b,4,4a,5-tetrahydro-1H-cyclopropa[3,4]cyclopenta[1,2-c]pyrazol-1-yl}ethan-1-one]
20 | 54.2 | Cc1cccc(C2CCN(C(=O)Cn3nc(C(=O)N4CC[C@H](O)[C@H](F)C4)c4c3C[C@@H]3C[C@H]43)CC2)c1C [Example 29, 1-[4-(2,3-dimethylphenyl)piperidin-1-yl]-2-{(3bS,4aS)-3-[(3R,4S)-3-fluoro-4-hydroxypiperidine-1-carbonyl]-3b,4,4a,5-tetrahydro-1H-cyclopropa[3,4]cyclopenta[1,2-c]pyrazol-1-yl}ethan-1-one]
